# Test results taken from patent US6369109B1, “Betulinic acid and derivatives thereof useful for the treatment of neuroectodermal tumor” (Deutsches Krebsforschungszentrum Stiftung des Offentlichen …, priority 1998, dated 2002).
# Assays:
# [1] = test system: SH-EP neuroblastoma cells; test: Specific apoptosis, FACS analysis of propidium iodide-stained nuclei; format: cell-based, human; conditions: 10 μg/ml antibody fragments 1 h before drug; 10 μg/ml betulinic acid, 50 μg/ml VP-16, 10 μg/ml cisplatinum, 0.5 μg/ml doxorubicin, 72 h; FIG. 3B
# Description: Quantification of DNA fragmentation was performed by FACS analysis of propidium iodide stained nuclei as described in Nicoletti et al, 1991, J. Immunol. Methods. 139: 271-279. Cells were analyzed for DNA content by flow. cytometry (FACScan, Becton Dickinson, Heidelberg, Germany) using CELLQuest software. Early apoptotic changes were identified by staining with biotinylated annexin V (Bender Med Systems, Vienna, Austria) following the manufacturer's instructions. Annexin V binds to exposed phosphatidylserine on the surface of apoptotic cells. Koopman et al, 1994, Blood. 84:1415-1420. Cells were analyzed by flow cytometry (FAC-Scan. Becton Dickinson) using CELLQuest software.
# Cells were treated with 10 μg/ml betulinic acid for 72 h. Apoptosis was assessed by FACS analysis of propidium iodide-stained nuclei. Percentage of specific apoptosis was calculated as follows: experimental apoptosis (%) −spontaneous apoptosis in medium (%)/[100%−spontaneous apoptosis in medium (%)]×100%. […]
# Cells were incubated for indicated times with doxorubicin, betulinic acid or anti-APO-1 and harvested by trypsinization using 0.05% trypsin and 0.02% EDTA without Ca^2+and Mg^2+(Life Technologies, Inc.). Quantification of DNA fragmentation was performed by FACS analysis of propidium iodide stained nuclei as previously described in Nicoletti et al., J. ImmunoL Methods 139:271-279, using CELLQuest software (Becton Dickinson, Heidelberg, Germany).
# (§1) SHEP cells transfected with Bcl-2 or BCl-XL or a neomycin resistance vector only (Neo) were treated with 0.5 μg/ml Doxorubicin or 10 μg/ml Betulinic acid for 48 h (A) or 24 h (B and C). Cells transfected with a neomycin resistance vector only (Neo) were treated in the presence or absence of 50 μm BA or 60 μm zVAD-fmk. Nuclear apoptosis was determined by FACS analysis or propidium iodide-stained DNA content in intact cells (A) or in a CFS incubating isolated nuclei with mitochondria from cells treated with Doxo or betulinic acid (C). ΔΨm was determined by staining cells with the potential-sensitive fluorochrome DiOC6(3) (B).
# [2] = test system: mitochondria isolated from SHEP cells; test: Mitochondrial membrane potential of isolated mitochondria (DiOC6(3)); format: biochemical, human; conditions: mitochondria from wild type or vector-only SHEP cells; 10 μg/ml betulinic acid, 30 min; FIG. 7, 12D
# Description: For isolation of mitochondria, cells (3×10^5 per sample) were washed twice with ice-cold PBS and resuspended with five volumes of buffer A (50 mM Tris, 1 mM EGTA, 5 mM 2-mercaproethanol, 0.2% BSA, 10 mM KH2PO4, pH 7.6, 0.4 M sucrose) and allowed to swell on ice for 20 min. Cells were homogenized with 30 strokes of a Teflon homogenizer and centrifuged at 10000 g for 10 min at 4° C. The resulting pellets were resuspended in buffer B (10 mM KH2PO4, pH 7.2, […] mannitol, 0.1% BSA). Mitochondria were separated by sucrose gradient (lower layer: 1.6 M sucrose, 10 mM KH2PO4, pH 7.5, 0.1% BSA; upper layer: 1.2 M sucrose, 10 mM KH2PO4, pH 7.5, 0.1% BSA). Interphases containing mitochondria were washed with buffer B at 18000 g for 10 min at 4° C. and the resulting mitochondrial pellets were resuspended in buffer B. For preparation of cytosolic extracts, cells (1×10^8 per sample) were washed twice with ice-cold PBS, resuspended with one volume of buffer A and allowed to swell on ice for 20 min. Cells were homogenized with 30 strokes of a Dounce homogenizer and centrifuged at 15000×g for 15 min ax 4° C. The protein concentration of mitochondria or cytosolic extracts was determined by Bradford method (Bio-Rad). For isolation of nuclei, cells were washed twice in ice-cold PBS, resuspended in 10 volumes of buffer C (10 mM PIPES, pH 7.4, 10 mM KCl, 2 mM MgCl2, 1 mM DDT, 1 mM PMSF, 10 μM cytochalasin B), allowed to swell on ice for 20 min and homogenized using a Teflon homogenizer. Homogenates were layered over 30% sucrose in buffer C and centrifuged at 800 g for 10 min. The resulting nuclear pellets were resuspended in buffer C and washed three times. Nuclei were scored at −80° C. in aliquots of 10^8 nuclei/ml until required. AIF-containing mitochondrial supernatant was prepared as described in Susin et aL, 1997, J. Exp. Med. 186, 5-37 and Susin et al., 1996, J. Exp. Med. 184, 1331-41.
# Mitochondria (5×10^5/ml) were treated with 10 μg/ml betulinic acid for 30 min, incubated with 3,3′-dihexyloxacarbocyanide iodide (DiOC6(3), 40 nM, Molecular Probes, Inc., Eugene, Oreg.) for 15 min at 37° C. and analyzed on a flow cytometer (FACS Vantage, Becton Dickinson). As a control, cells were treated with the uncoupling agent carbonyl cyanide m-chlorophenylhydrazone (mCICCP, 200 μM, Sigma).
# [3] = test system: isolated nuclei with mitochondria from SHEP cells; test: Cell-free system of apoptosis: nuclear fragmentation of isolated nuclei; format: biochemical, human; conditions: for nuclear DNA fragmentation, mitochondria plus nuclei plus drug: Neo control mitochondria, 0.1-10 μg/ml betulinic acid or 5 mM atractyloside, 6 h, FIG. 8A, 8B
# Description: (§2) For determination of nuclear fragmentation, nuclei (10^3/μl) were incubated with mitochondria (1 μg/μl) in buffer D (10 mM HEPES, pH 7.4, 50 mM NaCl, 2 mM MgCl2, 5 mM EGTA, 1 mM DDT, 2 mM ATP, 10 mM phosphocreatine, 50 μg/ml creatine kinase, 10 μM cytochalasin B) for 2 h at 37° C. Nuclei were stained with propidium iodide ([…]) and analyzed by flow cytometry. For determination of caspase activation, cytosolic extracts (2 μg/μl) were incubated with mitochondria (1 μg/μl), cytochrome c (0.1-100 μM) or AIF-containing mitochondrial supernatant (0.5 μg/μl) in buffer D for 2 h at 37° C. Partially purified AIF (cytochrome c-free) was prepared as previously described (0.5 mg/ml, Susin et al., 1997, J. Exp. Med. 186, 5-37; Susin et al., 1996, J. Exp. Med. 184, 1331-41). Proteins were separated by 15% SDS-PAGE and Western blot analysis was performed as described above.
# Mitochondria isolated from SHEP cells, transfected with bcl-2 or bcl-XL or a neomycin resistance vector only, were incubated for 6 h with nuclei and 0.1-10 μg/ml betulinic acid (FIG. 8A) or 5 mM atractyloside (FIG. 8B) in the presence or absence of 50 μM bongkrekic acid or 60 μMZ-VAD-fnk. Nuclei incubated with either mitochondria from vector only cells or with betulinic acid were used as control. Nuclear apoptosis was determined by FACS analysis of propidium iodide stained DNA content.
# SHEP cells transfected with bcl-2 or bcl-XL or a neomycin resistance vector only were treated with 10 μg/ml betulinic acid or 5 mM atractyloside for 6-24 h (FIG. 8C). Mitochondria were isolated and incubated with nuclei in the presence or absence of 50 μM bongkrekic acid or 60 μMZ-VAD-fmk. Nuclei incubated with either mitochondria front vector only cells or with betulinic acid were used as control. Nuclear apoptosis was determined by FACS analysis of propidium iodide stained DNA content.
# Mitochondria isolated from SHEP cells transfected with bcl-2, Bcl-XL or a neomycin resistance vector only were treated with 10 μg/ml betulinic acid or 5 mM atractyloside for 0.5 h in the presence or absence of 50 μM bongkrekic acid or 60 μM zVAD-fmk. Mitochondrial supernatants obtained by high speed centrifugation were incubated with nuclei for 2 h at 37° C. Nuclei incubated with supernatants of untreated mitochondria were used as control.. Nuclear apoptosis was determined by FACS analysis of propidium iodide stained DNA content.
# as §2, with “cytometry (Susin et al., 1997 Exp. Cell Res. 236:397-403).” for “cytometry.”, “(10” for “(0.1-100”, “C.” for “C. Partially purified AIF (cytochrome c-free) was prepared as previously described (0.5 mg/ml, Susin et al., 1997, J. Exp. Med. 186, 5-37; Susin et al., 1996, J. Exp. Med. 184, 1331-41).”, “before.” for “above.”
# as §1
# [4] = test system: caspase-3, caspase-8 and PARP in cytosolic extracts of SHEP cells; test: Cell-free system of apoptosis: cleavage of caspases in cytosolic extracts by mitochondria; format: biochemical, human
# Description: as §2, with “above. To confirm equal loading of mitochondrial protein, all Western blots were also developed with an antibody directed against a 60 kDa mitochondrial antigen (data not shown).” for “above.”
# SHEP cells transfected with bcl-2 or Bcl-XL or a neomycin resistance vector only were treated with 10 μg/ml betulinic acid for 16 h. Mitochondria were isolated and incubated with cytosolic extracts for 6 h in the presence or absence of 60 μM zVAD-fmk (left panel, cells). Alternatively, mitochondria isolated from untreated cells were incubated with 10 μg/ml betulinic acid or 5 mM atractyloside together with cytosolic extracts for 6 h in the presence or absence of 60 μMZ-VAD-fmk (right panel, mitos, Atra). Cytosolic extracts incubated with mitochondria isolated from untreated cells or with untreated mitochondria were used as control. 40 μg protein per lane isolated front cell lysates were separated by 15% SDS-PAGE. Immunodetection of caspases-3, -8 and PARP protein was performed by mouse anti-caspase-3 mAb, mouse anti-caspase-8 mAb, rabbit anti-PARP polyclonal antibody and ECL.
# SHEP cells treated with 10 μg/ml betulinic acid for indicated times. Mitochondria were isolated and incubated with cytosolic extracts for 6 h. Western blot analysis was performed as described above.
# Mitochondria isolated from SHEP cells transfected with bcl-2 or Bcl-XL or a neomycrn resistance vector only were treated with 10 μg/ml betulinic acid or 5 mM atractyloside for 0.5 h in the presence or absence of 50 μM bongkrekic acid or 60 μM zVAD-fmk. Mitochondrial supernatants obtained by high speed centrifugation were incubated with cytosolic extracts for 6 h at 37° C. Cytosolic extracts incubated with supernatants of untreated mitochondria were used as control. Western blot analysis was performed as described for FIG. 9A.
# as §2, with “cytometry (Susin et al., 1997 Exp. Cell Res. 236:397-403).” for “cytometry.”, “(10” for “(0.1-100”, “C.” for “C. Partially purified AIF (cytochrome c-free) was prepared as previously described (0.5 mg/ml, Susin et al., 1997, J. Exp. Med. 186, 5-37; Susin et al., 1996, J. Exp. Med. 184, 1331-41).”, “before.” for “above.”
# SHEP cells transfected with Bcl-2 or Bcl-XL or a neomycin resistance vector only (Neo) were treated (Lanes+) with 0.5 μg/ml Doxo or 10 μg/ml Bet A for 16 h. Mitochondria were isolated and incubated with cytosolic extracts for 6 h. in the presence or absence of 60 μm Z-VAD.fmk. Western blot analysis was performed as described in FIG. 14A.
Compound,effect of CD95 blockage by F(ab′)2 anti-APO-1 on drug-induced apoptosis [1],Δψm of isolated mitochondria [2],"nuclear DNA fragmentation, mitochondria plus nuclei plus drug [3]","DNA fragmentation by supernatants from treated mitochondria ([3]; 10 μg/ml betulinic acid or 5 mM atractyloside 0.5 h, supernatant with nuclei 2 h, FIG. 10B)","caspase cleavage in cytosolic extracts by supernatants from treated mitochondria ([4]; 10 μg/ml betulinic acid or 5 mM atractyloside 0.5 h, extracts 6 h, FIG. 10A)","caspase cleavage in cytosolic extracts by treated isolated mitochondria ([4]; 10 μg/ml betulinic acid or 5 mM atractyloside, 6 h, FIG. 9A)"
"COc1cc([C@@H]2c3cc4c(cc3[C@@H](O[C@@H]3O[C@@H]5CO[C@@H](C)O[C@H]5[C@H](O)[C@H]3O)[C@H]3COC(=O)[C@H]23)OCO4)cc(OC)c1O [VP-16, etoposide]",markedly reduced,did not induce mitochondrial perturbations,No DNA fragmentation was observed,–,–,–
C=C1[C@@H]2CC[C@H]3[C@]4(C)C[C@H](O[C@@H]5O[C@H](CO)[C@@H](OS(=O)(=O)O)[C@H](OS(=O)(=O)O)[C@H]5OC(=O)CC(C)C)C[C@@H](C(=O)O)[C@H]4CC[C@]3(C2)[C@H]1O [atractyloside],–,–,had the same effect as betulinic acid,caspase activation and nuclear fragmentation were observed,caspase activation and nuclear fragmentation were observed,led to activation of caspases
N.N.[Cl][Pt][Cl] [cisplatinum],markedly reduced,did not induce mitochondrial perturbations,No DNA fragmentation was observed,–,–,–
